# Source: ChEMBL document CHEMBL4052588, “Design of a Biased Potent Small Molecule Inhibitor of the Bromodomain and PHD Finger-Containing (BRPF) Proteins Suitable for Cellular and in Vivo Studies” (J Med Chem, 2017)
# Tests used:
# [1] = molecular target: Chromatin remodeling regulator CECR2 (Homo sapiens, UniProt Q9BXF3); assay: Inhibition of human His tagged CECR2 incubated for 30 mins followed by addition of biotinylated peptide and further incubation for 30 mins measured by AlphaScreen assay
# [2] = molecular target: T1, Bromodomain-containing protein 1 (Homo sapiens, UniProt O95696); assay: Inhibition of human His tagged BRPF2 incubated for 30 mins followed by addition of biotinylated peptide and further incubation for 30 mins measured by AlphaScreen assay
# T1 sequence (O95696 whole entry): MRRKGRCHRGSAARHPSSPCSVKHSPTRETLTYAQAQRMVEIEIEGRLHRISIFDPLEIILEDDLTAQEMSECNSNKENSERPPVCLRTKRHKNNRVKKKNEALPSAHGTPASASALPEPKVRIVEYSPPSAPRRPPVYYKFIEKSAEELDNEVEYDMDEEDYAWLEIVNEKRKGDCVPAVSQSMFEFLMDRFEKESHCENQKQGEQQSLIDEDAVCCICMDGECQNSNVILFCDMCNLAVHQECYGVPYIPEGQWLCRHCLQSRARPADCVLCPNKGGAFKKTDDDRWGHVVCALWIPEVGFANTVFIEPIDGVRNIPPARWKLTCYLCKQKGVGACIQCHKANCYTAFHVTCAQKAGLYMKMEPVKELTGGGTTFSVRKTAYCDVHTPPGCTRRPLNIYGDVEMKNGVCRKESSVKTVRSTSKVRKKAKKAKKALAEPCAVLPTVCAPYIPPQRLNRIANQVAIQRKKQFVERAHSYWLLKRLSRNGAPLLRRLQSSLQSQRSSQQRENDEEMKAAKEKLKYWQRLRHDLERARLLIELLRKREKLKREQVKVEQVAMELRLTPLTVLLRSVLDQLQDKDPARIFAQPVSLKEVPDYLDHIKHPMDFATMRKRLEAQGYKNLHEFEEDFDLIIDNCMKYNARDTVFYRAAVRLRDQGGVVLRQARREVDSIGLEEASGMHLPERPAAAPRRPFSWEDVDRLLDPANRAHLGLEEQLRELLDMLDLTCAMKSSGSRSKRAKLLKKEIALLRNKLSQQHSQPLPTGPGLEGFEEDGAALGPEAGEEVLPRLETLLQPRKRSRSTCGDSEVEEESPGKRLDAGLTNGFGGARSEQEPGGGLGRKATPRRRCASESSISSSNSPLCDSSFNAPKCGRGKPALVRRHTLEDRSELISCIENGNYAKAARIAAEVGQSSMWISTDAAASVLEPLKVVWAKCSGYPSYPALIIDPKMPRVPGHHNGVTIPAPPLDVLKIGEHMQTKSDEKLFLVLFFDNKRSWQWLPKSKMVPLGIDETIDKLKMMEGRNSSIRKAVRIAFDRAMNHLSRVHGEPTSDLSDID
# SW48 = assay: Growth inhibition of human SW48 cells after 72 hrs; type: functional; conditions: SW48, 72 h
# SW948 = assay: Growth inhibition of human SW948 cells after 72 hrs; type: functional; conditions: SW948, 72 h
# [3] = Growth inhibition of human Panc 02.03 cells after 72 hrs; type: functional; conditions: Panc 02.03, 72 h
# Chain of Chromatin remodeling regulator CECR2 (Q9BXF3 whole entry): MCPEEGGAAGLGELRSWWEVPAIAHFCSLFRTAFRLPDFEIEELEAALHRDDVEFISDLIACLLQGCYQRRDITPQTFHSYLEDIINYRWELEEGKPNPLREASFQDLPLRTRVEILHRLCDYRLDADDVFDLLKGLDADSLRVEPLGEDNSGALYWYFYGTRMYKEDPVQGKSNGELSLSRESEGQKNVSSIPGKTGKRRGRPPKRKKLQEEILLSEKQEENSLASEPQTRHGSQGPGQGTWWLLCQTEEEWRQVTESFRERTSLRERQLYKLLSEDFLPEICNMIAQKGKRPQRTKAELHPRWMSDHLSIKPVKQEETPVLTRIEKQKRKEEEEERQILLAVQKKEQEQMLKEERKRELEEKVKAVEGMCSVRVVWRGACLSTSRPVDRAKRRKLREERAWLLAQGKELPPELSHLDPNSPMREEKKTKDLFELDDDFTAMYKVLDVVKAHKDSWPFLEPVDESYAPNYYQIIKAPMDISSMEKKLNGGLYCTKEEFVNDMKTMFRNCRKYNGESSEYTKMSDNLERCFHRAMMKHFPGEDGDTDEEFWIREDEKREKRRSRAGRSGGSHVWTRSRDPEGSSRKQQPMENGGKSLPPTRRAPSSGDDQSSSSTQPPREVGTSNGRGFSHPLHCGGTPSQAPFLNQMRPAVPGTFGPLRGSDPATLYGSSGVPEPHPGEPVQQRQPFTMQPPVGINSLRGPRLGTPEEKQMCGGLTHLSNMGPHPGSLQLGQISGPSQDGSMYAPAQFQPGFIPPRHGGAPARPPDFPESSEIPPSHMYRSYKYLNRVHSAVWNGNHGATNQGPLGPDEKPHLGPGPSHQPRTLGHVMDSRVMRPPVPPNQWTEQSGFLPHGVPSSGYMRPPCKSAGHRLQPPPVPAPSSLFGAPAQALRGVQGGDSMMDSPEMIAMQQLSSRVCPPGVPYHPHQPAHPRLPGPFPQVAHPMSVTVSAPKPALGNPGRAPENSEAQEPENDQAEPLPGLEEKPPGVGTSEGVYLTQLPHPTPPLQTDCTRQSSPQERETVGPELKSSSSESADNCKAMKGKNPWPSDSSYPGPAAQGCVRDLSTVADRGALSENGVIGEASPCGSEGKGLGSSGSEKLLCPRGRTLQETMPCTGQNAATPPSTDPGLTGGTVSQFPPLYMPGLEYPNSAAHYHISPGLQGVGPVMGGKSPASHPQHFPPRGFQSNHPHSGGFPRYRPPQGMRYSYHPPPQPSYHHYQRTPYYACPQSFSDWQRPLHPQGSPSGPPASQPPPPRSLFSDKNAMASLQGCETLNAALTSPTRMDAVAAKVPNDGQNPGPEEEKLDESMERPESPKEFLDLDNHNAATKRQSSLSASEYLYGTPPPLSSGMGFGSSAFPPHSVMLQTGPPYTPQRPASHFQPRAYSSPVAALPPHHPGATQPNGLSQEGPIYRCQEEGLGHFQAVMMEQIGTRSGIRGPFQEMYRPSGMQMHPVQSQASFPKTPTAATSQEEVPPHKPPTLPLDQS
IC50 [1],IC50 [2],GI50 (SW48),GI50 (SW948),SMILES,GI50 [3]
> 20000 nM,–,–,–,CCc1cc2cc(NS(=O)(=O)c3ccc(C#N)cc3)ccc2n(CC)c1=O,–
–,760 nM,1000 to 10000 nM,1000 to 10000 nM,Cc1cc2cc(NS(=O)(=O)c3ccc(C#N)cc3)ccc2n(C)c1=O,1000 to 10000 nM
